Experimental data taken from patent EP3895685A1, “NATURAL COMPOSITION FOR HAIR GROWTH STIMULATION AND HAIR LOSS PREVENTION AND TREATMENT WITHOUT PRESERVATIVES” (Fraunhofer-Gesellschaft zur Förderung der angewandten …, priority 2020, dated 2021).

Assays:
HFDPC [1] = assay: Cell impedance test (xCELLigence, cell index) on proliferation and toxicity; format: cell-based
HFDPC [2] = assay: Assessment of cell morphology by phase contrast microscopy; format: cell-based, human; details: for cell adherence and proliferation (summary): confluence and cell shape after 3 weeks, diosgenin concentration-dependent
Protocol: (§1) First, Human Follicle Dermal Papilla Cells (HFDPC) cells were thawed and seeded into collagen-coated cell culture flasks (T25). Then the medium was changed every 48 h. After 4 days the cells were trypsinized and seeded in T75 cell culture flask. In preparation for the final experiment, the cells were trypsinized and then counted with a cell counter. The cell concentration was then adjusted in a defined amount of medium followed by seeding of the cells in 96-well plates for the subsequent cell impedance measurements (5000 cells per well) or in 24-well plates (20000 cells per well). Subsequently, the cells were cultivated for 7 days in pure culture medium with regular medium changes after 2-3 days. After 7 days, the medium with the additives listed in Table 1 was added (designated as day 0), followed by a 3-week cultivation of the cells. The medium (and addition of fresh active substances) was changed every 2-3 days. […] The following examinations were carried out after 7, 14 and 21 days. Cells in pure culture medium (C+M) were used as controls (untreated). All cell culture substrates were coated with collagen prior to cell seeding. The tests with HFDPC were run without the use of preservatives.
Cell morphology was assessed through microscopic examination of the cells with an inverted microscope (phase contrast microscopy) at 10x and 20x primary magnification. The morphology of the cells provides information on the adherence behaviour of the cells,possible cell activation and cell stress. This examination was carried out on a 24-well scale.

VEGF = assay: VEGF-ELISA in cell culture supernatant; format: cell-based, human
Excerpt: If the cell membrane is damaged, the lactadehydrogenase (LDH) present inside the cell is released into the cell culture supernatant. The resulting NADH/H+ reduces the tetrazolium salt present in the reaction mixture to formazan. This becomes visible by a colour change, which can be detected at an absorption of 450 nm (y-axis: OD 450 nm) in the microplate reader. The higher the intensity of the colour change, the greater the degree of membrane damage. A low OD 450 nm value is desired. Four diagrams are presented: The LDH level after one week (LDH 1st Week of Trial), two weeks (LDH 2nd Week of Trial) and three weeks (LDH 3rd Week of Trial) after the HFDPC cells were exposed to the control conditions or to the actives substances. The control conditions are HFDPC with medium (blue, C+M). Active substances are arachidonate with low concentration (purple, Ara 1.c), arachidonate with high concentration (orange, Ara 2.c), diosgenin with low concentration (black, Dios 1.c), diosgenin with high concentration (brown, […]), ricinoleic acid with low concentration (dark blue, Rici 1.c), ricinoleic acid with high concentration (dark violet, Rici 2.c), inventive example with low concentration (red, IE 1.c) inventive example with high concentration (green, IE 2.c). The fourth diagram presents a background control, in which the LDH level was measured by OD 450 nm values (y-axis) from the cell culture supernatant for the medium (blue, M) as a control test and for the medium with the active substance in high concentrations (green, M+Ara 2.c; purple, M+Dios 2.c; orange, M+Rici 2.c; black, M+IE 2.c) after one, two and three weeks (x-axis). • FIG 2: Phase contrast images of untreated HFDPC (HFDPC in medium) 1 week after cell cultivation a) 10x magnification, b) 20x magnification • FIG 3: Phase contrast images of treated HFDPC in 20x magnification, one week after addition of the active ingredient a) Ara 1.c, b) Ara 2.c, c) Rici 1.c, d) Rici 2.c, e) Dios 1.c, f) Dios 2.c, g) IE 1.c, h) IE 2.c • FIG 4: Phase contrast images of untreated and treated HFDPC in 20x magnification, two weeks after addition of the active ingredient a) Medium b) Ara 1.c, c) Ara 2.c, d) Rici 1.c, e) Rici 3.c, f) Dios 1.c, g) Dios 2.c, h) IE 1.c, i) IE 2.c • FIG 5: Phase contrast images of untreated and treated HFDPC in 20x magnification, three weeks after addition of the active ingredient a) Medium b) Ara 1.c, c) Ara 2.c, d) Rici 1.c, e) Rici 3.c, f) Dios 1.c, g) Dios 2.c, h) IE 1.c, i) IE 2.c • FIG 6: Alkaline Phosphatase Alkaline phosphatase (AP) is an enzyme that catalyses the hydrolysis of a large number of phosphate esters. The enzyme is formed by the HFDPCs during the hair cycle. Thus, the detection of AP is the proof of hair growth. […]

HFDPC [3] = assay: Cell count after trypsination; format: cell-based, human; details: for influence on the cell count (summary): over 3 weeks
Protocol: as §1
This investigation was performed on a 24-well scale.
To perform this investigation 5000 cells per well were seeded in the 96-wells with the addition of a maximum of 200 µl medium. The cells were grown for 7 days in pure cell culture medium. The medium was changed every 2-3 days, whereby 100 µl of old medium was removed and replaced by 100 µl of new medium. After 7 days the "pure" cell culture medium was completely removed and medium with the respective additives was added. The cells were then cultivated for 3 weeks with regular replacement of the medium with the respective additives. Cell counting after trypsinizing: The exact cell count of HFDPC was determined after trypsination of the cells in the respective well and uptake of the resulting cell pellets in medium. All pellets of one sample were combined in a cell culture vessel and then counted with a cell counter.

HFDPC [4] = assay: Immunofluorescent staining of vimentin; format: cell-based, human; details: 2. Concentration (2c)
[5] = 250 µg/mL in medium, first 24 hours after addition
[6] = 1 week after addition, versus untreated cells
[7] = 2 weeks after addition, versus untreated cells
[8] = depending on concentration and time, compared to untreated cells
[9] = 1. Concentration (1c), after 3 weeks

CCCCCC[C@@H](O)C/C=C\CCCCCCCC(=O)O [Rici, 12-hydroxy-9-cis-octadecenoic acid]
cell index (HFDPC [1]; 100µg/mL, after 24 h and 48 h addition): remained constant | cell index (HFDPC [1]; [5]): positive influence on the cell index | toxic effect on the cells (HFDPC [1]; [5]): does not appear to have a toxic effect | cell index (HFDPC [1]; 250 µg/mL, after 48h of repeated addition): decreases | cell morphology / confluence (HFDPC [2]; [6]): greater confluence | cell morphology / confluence (HFDPC [2]; [7]): very high confluence in the well and elongated, typical growth | cell morphology / confluence (HFDPC [2]; 3 weeks after addition, both concentrations): confluent, very dense monolayer and an elongated cell shape | cell adherence and proliferation (summary) (HFDPC [2]): very beneficial | VEGF release (VEGF; 2. Concentration (2.c), after 3 weeks): lower VEGF release | cell count (HFDPC [3]; after 1 week, compared to untreated cells): difference was visible | cell count (HFDPC [3]; [8]): significant increase in cell count | influence on the cell count (summary) (HFDPC [3]): positive influence on the cell count

CCCCC/C=C\C/C=C\C/C=C\C/C=C\CCCC(=O)[O-].[Na+] [Ara, Sodium Arachidonate]
cell index (HFDPC [1]; 50 µg/mL in medium): increase the cell index | toxic effect on the cells (HFDPC [1]; 50 µg/mL in medium): does not have a toxic effect | toxic effect on the cells (HFDPC [1]; 100µg/mL in medium): has a toxic effect | cell density (HFDPC [2]; 2 weeks after addition, higher concentration): higher cell density | cell morphology / confluence (HFDPC [2]; [7]): almost the same morphology | VEGF release (VEGF; [9]): lower VEGF release | cell count (HFDPC [3]; after 3 weeks, higher concentration, compared to untreated cells): increase in HFDPC | cell count (HFDPC [3]; entire duration of the experiment, independent of time and concentration): did not negatively affect the cell count | cell count (HFDPC [3]; over 2 weeks): remained constant | cell spreading and attachment to the cell culture substrate (HFDPC [4]): able to clearly spread and attach to the cell culture substrate

C[C@@H]1CC[C@@]2(OC1)O[C@H]1C[C@H]3[C@@H]4CC=C5C[C@@H](O)CC[C@]5(C)[C@H]4CC[C@]3(C)[C@H]1[C@@H]2C [Dios, Diosgenin]
toxicity in the cellular impedance test (HFDPC [1]; measured maximum concentration of 500 µg/mL): not toxic | cell morphology / confluence (HFDPC [2]; [6]): greater confluence | cell morphology / confluence (HFDPC [2]; [7]): very high confluence in the well and elongated, typical growth | cell morphology / confluence (HFDPC [2]; 3 weeks after addition, lower concentration): resembled untreated cells | cell adherence and proliferation (summary) (HFDPC [2]): very beneficial | VEGF release (VEGF; 1. Concentration (1c), after 1 week): lower VEGF release | VEGF release (VEGF; [9]): lower VEGF release | number of HDFPC (HFDPC [3]; 1c, over time): remained constant after addition of Diosgenin 1c, but was increased compared to untreated cells | cell number (HFDPC [3]; 2c, over time, compared to untreated and Diosgenin 1c treated cells): significant increase in cell number | cell count (HFDPC [3]; [8]): positive influence on the cell number | influence on the cell count (summary) (HFDPC [3]): positive influence on the cell count | cell spreading and attachment to the cell culture substrate (HFDPC [4]): able to clearly spread and attach to the cell culture substrate
